According to US20140213520A1, “METHODS OF TREATING CARDIOVASCULAR INDICATIONS” (Cardiorentis Ltd., priority 2013, published 2014):

What was measured:
Assay type in all cases: cell-based
[1] = system: Cardiac microvascular endothelial cells (HCMEC); experiment: apoptosis ELISA measuring DNA fragmentation in HCMEC exposed to conditioned milieu (cocktail); conditions: HCMEC exposed 30 hours to cocktail (C-reactive protein, TNF-alpha, IL-1β, endothelin-1, galectin-3); treated at 2, 4, 6, 10 or 24 hours; FIG. 1
Description: (§1) Cardiac microvascular endothelial cells (“HCMEC”) were exposed for 30 hours to a conditioned milieu (“cocktail”) containing a selection of factors (C-reactive protein at 10 μg/ml, TNF-alpha at 10 μg/ml, IL-1β at 10 ng/ml, endothelin-1 at 10 pg/ml and galectin-3 at 20 ng/ml) found in the plasma of ADHF patients. […] The cells from each exposure were harvested at 30 hours for experimental data. Experimental readouts included apoptosis, total protein nitrosylation and lactate dehydrogenase (“LDH”) assay.
In the data represented by FIG. 1, apoptosis was assessed by performing an ELISA (enzyme-linked immunosorbent assay) measuring DNA fragmentation.

[2] = system: Cardiac microvascular endothelial cells (HCMEC); experiment: total protein nitrosylation by western blotting in HCMEC exposed to cocktail; conditions: HCMEC exposed 30 hours to cocktail; treated at 2, 4, 6, 10 or 24 hours; FIG. 2
Description: as §1
The data represented by FIG. 2 is directed to protein nitrosylation which is a postranlational modification caused by peroxynitrite. Peroxynitrite (ONOO^−) results from the scavenging action of superoxide anion (O2^−) on nitric oxide (NO) and results in a decreased bioavailability of the latter. Protein Nitrosylation has several deleterious effects on key vasoactive factors and their function, e.g. prostacyclin synthase is inactivated by nitrosylation.

[3] = system: Cardiac microvascular endothelial cells (HCMEC); experiment: LDH assay: LDH release into culture medium by spectrophotometry; conditions: HCMEC exposed 30 hours to cocktail; treatment at two hours; FIG. 3
Description: as §1
FIG. 3 depicts a LDH assay that was performed by measuring LDH release (by spectrophotometry) in the medium where cells were cultured. LDH is a cytoplasmic enzyme released by cells following membrane damage (i.e., cell death).

**Q.** relaxin was tested. Which “cocktail-induced apoptosis (DNA fragmentation ELISA)” value [1] did it give?
**A.** Its value is “decrease cocktail-induced apoptosis”.

**Q.** What about the “protein nitrosylation (western blotting)” value [2] of the same substance?
**A.** Its value is “antioxidant property that decreases over time”.

**Q.** And the “LDH release (cell death)” value [3]?
**A.** The value was “increase in cell death”.
